Measurements from patent US9789102B2, “H3 receptor antagonist for use in the treatment of alzheimer's disease” (SANOFI, priority 2012, dated 2017).

How the values were obtained:
[1] = system: neurofibrillary tangles (NFTs); test: NFTs formation by Gallyas silver staining with quantitative image analysis after six months in food; type: in vivo, THY-Tau22 mice
Source text: 2-(Cyclohexylmethyl)-N-{2-[(2S)-1-methylpyrrolidin-2-yl]ethyl}-1,2,3,4-tetrahydroisoquinoline-7-sulfonamide difumarate monohydrate was administrated as a supplement in food at doses of 0.00034%, 0.0034% and 0.034% for six months in THY-Tau22 and wild type mice as follows: • Tg Veh (n=17) • Tg Active Ingredient—0.034% (n=17) • Tg Active Ingredient—0.0034% (n=17) • Tg Active Ingredient—0.00034% (n=17) • WT Veh (n=17) • WT Active Ingredient—0.034% (n=17) • WT Active Ingredient—0.0034% (n=17) • WT Active Ingredient—0.00034% (n=17) • WT groups treated with Active Ingredient are not used in the biochemical and histological studies.
After mice were decapitated, brains were removed and one hemibrain (used for histopathological studies) was immersion-postfixed for seven days at 4° C. with 4% formaldehyde (Carlo Erba/code 415691). The other hemibrain was prepared for biochemical quantitative measurements.
Post-fixed hemibrains were incubated in phosphate-buffered saline (PBS, P 3813-10PAK, Sigma), transferred to a 20% sucrose solution (code 27480.294—Prolabo) for 48 hours at 4° C. to ensure good cryopreservation of tissues during subsequent freezing. For freezing, hemibrains were immersed for one minute in isopentane solution (Ref. No. 24872-323—Prolabo) cooled with dry ice to between −25° C. and −30° C. and then stored at −25° C.
The entire hemibrains were cut with a cryostat (Microm, HM560). Serial sagittal brain tissue sections were collected onto Superfrost plus microscope glass slides (VWR) and then stored at −20° C. (sections of 20 μm of thickness), or placed in PBS-sodium azide 0.1% (S-2002, Sigma) containing wells to avoid any contamination and stored at 4° C. (sections of 30 μm of thickness).
NFTs are a major defining neuropathological feature of tau pathology in AD. They consist of bundles of paired helical filaments and straight filaments and their main constituent is the hyperphosphorylated microtubule-associated protein tau. Gallyas staining is generally used to stain neurofibrillary pathology (Sun A. et al., J. Histochem Cytochem, 2002, 50, 4, pp. 463-472).
A series of 20 μm hemibrain sections (directly mounted on slides) per mice was used for Gallyas staining (Braak and Braak, 1991, Brain Pathology, 1, pp. 213-216). The detailed protocol is as follows:
The following reagents are used: periodic acid (Sigma Ref. No. P 7875); sodium hydroxide (Prolabo Ref. No. 1737-1000); potassium iodide (Merck Ref. No. 1.05043.1000); silver nitrate (Sigma Ref. No. S.8157); 100% ascetic acid (Prolabo Ref. No. 20 104.298); sodium carbonate, anhydrous (Merck Ref. No. 1.06392-0500); ammonium nitrate (Prolabo Ref. No. 21280-293); silicotungstic acid (Sigma Ref. No. T 2786); 40% formaldehyde (Carlo Erba Ref. No. 415661); sodium thiosulfate (Sigma Ref. No. 21724-500 g).
A first stock solution (No. 1) was prepared by dissolving 50 g of anhydrous sodium carbonate in 1000 ml of deionized water. A second stock solution (No. II) was prepared by dissolving 2 g of ammonium nitrate, 2 g of silver nitrate, and 10 g of silicotungstic acid in 1000 ml of deionized water. A third stock solution (No. III) was prepared by dissolving 2 g of ammonium nitrate, 2 g of silver nitrate, 10 g of silicotungstic acid, and 7.3 ml of commercial 37% formaldehyde solution in 1000 ml of deionized water. The stock solutions are stable and can be stored in opaque containers.
Each of the following steps in the method are carried out with stirring. • 1. Pretreatment: The sections on slides were immersed in a solution of 5% periodic acid in water for 5 minutes, and then rinsed twice for 5 minutes in deionized water. • 2. Argentation: The silver iodide solution is freshly prepared by dissolving 4 g of sodium hydroxide in 50 ml of distilled water and adding 10 g of potassium iodide, which is mixed and allowed to dissolve completely. 3.5 ml of a solution of 1% silver nitrate in water is added while stirring. […]

[2] = Comparison of exposures in mice (6 months in food) with those expected at steady state in AD patients; type: in vivo

For `CN1CCC[C@H]1CCNS(=O)(=O)c1ccc2c(c1)CN(CC1CCCCC1)CC2` [2-(cyclohexylmethyl)-N-{2-[(2S)-1-methylpyrrolidin-2-yl]ethyl}-1,2,3,4-tetrahydroisoquinoline-7-sulfonamide difumarate monohydrate], which “protective effect against pathological neurons (tangles number), all analyzed brain ROIs” value ([1]; 0.00034% in food) is on record?
The value was “no protective effect”.

What about the “NFTs formation in CA1 hippocampal subarea, vs vehicle” value ([1]; 0.0034% in food, n=9) of the same compound?
Its value is “statistical significant decrease”.

What about the “NFTs formation in cortex, vs vehicle” value ([1]; 0.0034% in food, n=9) of the same compound?
Its value is “statistical significant decrease”.

And the “decrease in the number of tangles, CA1 hippocampal subarea” value ([1]; 0.0034% in food, significant)?
The value was −25%.

What about the “decrease of the number of pathological neurons (NFTs, Gallyas), cortex” value ([1]; 0.0034% in food, significant) of the same compound?
Its value is −48%.

What about the “decrease in NFTs, amygdala” value ([1]; 0.0034% in food, statistically non-significant) of the same compound?
The value was −19%.

And the “NFTs formation in CA1 hippocampal subarea, vs vehicle” value ([1]; 0.034% in food, n=9)?
The value was “statistical significant decrease”.

And the “NFTs formation in amygdala, vs vehicle” value ([1]; 0.034% in food, n=9)?
Its value is “statistical significant decrease”.

What about the “NFTs formation in cortex, vs vehicle” value ([1]; 0.034% in food, n=9) of the same compound?
The value was “statistical significant decrease”.

What about the “decrease in NFTs, amygdala” value ([1]; 0.034% in food, significant) of the same compound?
Its value is −31%.

And the “decrease in the number of tangles, CA1 hippocampal subarea” value ([1]; 0.034% in food, significant)?
Its value is −22%.

And the “decrease of the number of pathological neurons (NFTs, Gallyas), cortex” value ([1]; 0.034% in food, significant)?
The value was −41%.

What about the “corresponding human dose (safe for patients) by comparison of exposures” value ([2]; 0.00034% in food of mice) of the same compound?
The value was “about 0.25 mg”.

And the “corresponding human dose (safe for patients) by comparison of exposures” value ([2]; 0.0034% in food of mice)?
The value was “about 2.5 mg”.
